This assay deals with Ebola virus. Briefly: microbe, parasite or virus in culture. The assay is classed as cell-based, Ebolavirus (EBOV). Particulars: for Emax: read-out: Max Effect.

From US8475804B2 (priority 2009, dated 2013) come the findings set out here.

Molecules are shown by their SMILES. Where a name gives a salt, the structure may show the parent alone. Read-outs that look alike come from different tables or passages of the source. Residues, ends and D or L forms follow the SMILES beside them. *: point of attachment. Cbz = O=C(OCc1ccccc1)*

`O=[N+]([O-])c1ccccc1OCCCCCOc1ccccc1[N+](=O)[O-]` [1,5′-Bis(2-Nitrophenoxy)pentane]: the “Max Effect” value is recorded as 0.531. Besides, for the setting “read-out: IC50”, the half-inhibitory concentration (IC50) came out at 13 µM.
In the case of `COc1cc(C=C2CCCC(=Cc3ccc(O)c(OC)c3)C2=O)ccc1O` [2,6-Divanillylidenecyclohexanone], under “Zaire ebolavirus, Vero”, the IC50 was found to be 6.4 µM and the Emax was determined as 93.2%.
For `CCCC[C@H]1C(=O)O[C@H](C)[C@H](NC(=O)c2cccc(NC=O)c2OC)C(=O)O[C@@H](C)[C@@H]1OC(=O)CC(C)C` [2-Methoxy-antimycin A3], the “Max Effect” value is recorded as 0.791. In addition, the IC50 (read-out: IC50) was 1.2 µM.
For the molecule `Nc1ncnc2c1c(I)cn2[C@@H]1O[C@H](CO)[C@@H](O)[C@H]1O` [5-Iodotubercidin], the “Max Effect” value is 0.369.
Turning to `N[C@H]1CC[C@@H](c2ccc(Cl)c(Cl)c2)c2ccccc21` [(1S,4S)-Desmethyl Sertraline, Hydrochloride], where the note is “Zaire ebolavirus, Vero”, half-maximal inhibition (IC50) was put at 1.3 µM and the Emax amounted to 68.8%.
Turning to `COc1cc(C[C@H]2C(=O)OC[C@@H]2Cc2ccc(OC)c(OC)c2)ccc1O` [(−)-Arctigenin], the “Max Effect” value is recorded as 0.411.
For `O=c1cnn([C@@H]2O[C@H](CO)[C@@H](O)[C@H]2O)c(=O)[nH]1` [Agent 6-Azauridine, 6-Azauridine], under “Zaire ebolavirus, Vero”, the IC50 is under 1 µM and the Emax came out at 80%.
For `CCN(CCCc1ccccc1)CCCc1ccccc1` [Alverine Citrate], the Emax (Zaire ebolavirus, Vero) amounted to 49.5%.
On to `CCOC(=O)C1=C(COCCN)NC(C)=C(C(=O)OC)C1c1ccccc1Cl` (centres unmarked) [Amlodipine Besylate], for which, where the note is “Zaire ebolavirus, Vero”, the IC50 was 13.2 µM and the Emax came to 52.8%.
For the molecule `COc1ccc(C[C@H]2NC[C@H](O)[C@H]2OC(C)=O)cc1` [Anisomycin], the “Max Effect” value was determined as 0.900. For the same molecule, the half-maximal inhibitory concentration (IC50) (read-out: IC50) was under 1.6 µM.
On to `CCOC(=O)c1c(CSc2ccccc2)n(C)c2cc(Br)c(O)c(CN(C)C)c12` [Arbidol], for which, under “Zaire ebolavirus, Vero”, inhibition was half-maximal at 6 µM (IC50) and the Emax amounted to 59.2%.
Consider `CC(=O)OC[C@H]1O[C@@H]([S-])[C@H](OC(C)=O)[C@@H](OC(C)=O)[C@@H]1OC(C)=O.CCP(CC)CC.[Au+]` [Auranofin], for which the IC50 (read-out: IC50) was under 1 µM.
Regarding `CN1CCCC(n2nc(Cc3ccc(Cl)cc3)c3ccccc3c2=O)CC1` (centres unmarked) [Azelastine], where the note is “Zaire ebolavirus, Vero”, the half-inhibitory concentration (IC50) turned out to be 122 µM and the Emax was 64.8%.
On to `CO/C1=C\C(C)=C\[C@@H](C)[C@@H](O)[C@@H](C)C/C(C)=C/C=C/[C@H](OC)[C@@H]([C@@H](C)[C@@H](O)[C@H](C)[C@@]2(O)C[C@@H](O)[C@H](C)[C@@H](C(C)C)O2)OC1=O` [Bafilomycin A1], for which the “Max Effect” value is 0.880. Besides, the half-inhibitory concentration (IC50) (read-out: IC50) worked out at 0.019 µM.
The matching figures for `Nc1nc(-c2nn(Cc3ccccc3F)c3ncccc23)ncc1C1CC1` [Bay 41-2272]: 0.900 and under 0.5 µM.
`CC(O)(CS(=O)(=O)c1ccc(F)cc1)C(=O)Nc1ccc(C#N)c(C(F)(F)F)c1` (centres unmarked) [Bicalutamide]: under “Zaire ebolavirus, Vero”, the Emax was 46.4%.
For the molecule `C[C@H]1CCC/C=C/[C@@H]2C[C@H](O)C[C@H]2[C@H](O)/C=C/C(=O)O1` [Brefeldin A], the “Max Effect” value is reported as 0.900. For the setting “read-out: IC50”, the IC50 is under 1.6 µM.
`CC(C)C[C@H]1C(=O)N2CCC[C@H]2[C@]2(O)O[C@](NC(=O)[C@@H]3C=C4c5cccc6[nH]c(Br)c(c56)C[C@H]4N(C)C3)(C(C)C)C(=O)N12` [Bromocriptine Mesylate]: where the note is “Zaire ebolavirus, Vero”, the Emax is 42.2%.
As for `O=C(/C=C/c1ccc(O)c(O)c1)OCCc1ccccc1` [CAPE], the “Max Effect” value amounted to 0.368.
In the case of `Nc1nc2ccc(Cl)cc2c2nc(-c3ccco3)nn12` [CGS 15943], where the note is “Zaire ebolavirus, Vero”, the Emax is 44.9%.
`NCCNS(=O)(=O)c1ccc(Cl)c2ccncc12` [CKI7]: the “Max Effect” value turned out to be 0.565. The IC50 (read-out: IC50) was 10.7 µM.
The matching figures for `CNc1ccc2oc(C[C@H]3O[C@@]4(CC[C@H]3C)O[C@H]([C@H](C)C(=O)c3ccc[nH]3)[C@H](C)C[C@H]4C)nc2c1C(=O)O` [Calcimycin A23187]: 0.789 and 1.1 µM.
As to `CC(C)[C@H](NC(=O)OCc1ccccc1)C(=O)N[C@H](C=O)Cc1ccccc1` [Carbobenzoxy-valinyl-phenylalaninal] (Cbz-Val-Phe-aldehyde), for the setting “Zaire ebolavirus, Vero”, the IC50 turned out to be 2.9 µM and the Emax was found to be 60.7%.
For `N#CC(C#N)=NNc1ccc(OC(F)(F)F)cc1` [Carbonyl cyanide 4-(trifluoromethoxy)phenylhydrazone], for the setting “Zaire ebolavirus, Vero”, 4.5 µM corresponded to half-maximal inhibition (IC50) and the Emax worked out at 75.2%.
Consider `CC(=O)OCC1=C(C(=O)O)N2C(=O)[C@@H](NC(=O)CSc3ccncc3)[C@H]2SC1` [Cephapirin Sodium], for which, where the note is “Zaire ebolavirus, Vero”, the midpoint of inhibition, the IC50, lay at 9.8 µM and the Emax is 66.2%.
The matching figures for `COc1ccc2cc1Oc1ccc(cc1)C[C@H]1c3c(cc4c(c3Oc3cc5c(cc3OC)CCN(C)[C@@H]5C2)OCO4)CCN1C` [Cepharanthine]: 5.6 µM and 65.2%.
The matching figures for `COCc1c(C(C)C)nc(C(C)C)c(/C=C/[C@@H](O)C[C@@H](O)CC(=O)O)c1-c1ccc(F)cc1` [Cerivastatin Sodium]: 0.1 µM and 44.3%.
In the case of `CN1CCN(C(c2ccccc2)c2ccc(Cl)cc2)CC1` (centres unmarked) [Chlorcyclizine Hydrochloride], where the note is “Zaire ebolavirus, Vero”, the Emax is 45.6%.
For `CC(=O)O.CC(=O)O.NC(=N\CCCCCC/N=C(N)/N=C(\N)Nc1ccc(Cl)cc1)/N=C(\N)Nc1ccc(Cl)cc1` [Chlorhexidine Diacetate], the “Max Effect” value is listed as 0.543. Further, where the note is “read-out: IC50”, the 50% inhibitory concentration (IC50) was found to be 6.1 µM.
Regarding `CN(C)CCOC(C)(c1ccccc1)c1ccc(Cl)cc1` (centres unmarked) [Chlorphenoxamine Hydrochloride], for the setting “Zaire ebolavirus, Vero”, the concentration for half-maximal inhibition (IC50) was 5 µM and the Emax was 78.9%.
As to `CO[C@@H]1[C@H](O)C[C@@H](O[C@@H]2C[C@H](Oc3cc4cc5c(c(O)c4c(O)c3C)C(=O)[C@@H](O[C@H]3C[C@@H](O[C@H]4C[C@@H](O[C@H]6C[C@](C)(O)[C@@H](OC(C)=O)[C@H](C)O6)[C@H](O)[C@@H](C)O4)[C@H](O)[C@@H](C)O3)[C@H]([C@H](OC)C(=O)[C@@H](O)[C@@H](C)O)C5)O[C@H](C)[C@@H]2OC(C)=O)O[C@@H]1C` [Chromomycin A3], the “Max Effect” value was found to be 0.629. Moreover, the half-inhibitory concentration (IC50) (read-out: IC50) came to 0.4 µM.
For `CC(C)C(=O)OCC(=O)[C@@]12O[C@H](C3CCCCC3)O[C@@H]1C[C@H]1[C@@H]3CCC4=CC(=O)C=C[C@]4(C)[C@H]3[C@@H](O)C[C@@]12C` [Ciclesonide], under “Zaire ebolavirus, Vero”, the 50% inhibitory concentration (IC50) amounted to 16 µM and the Emax came out at 51.2%.
`Cc1cc(C2CCCCC2)n(O)c(=O)c1` [Ciclopirox Olamine]: where the note is “Zaire ebolavirus, Vero”, the Emax is 43.1%.
On to `CC1(C)C[C@@H]1C(=O)N/C(=C\CCCCSC[C@H](N)C(=O)O)C(=O)O` [Cilastatin Sodium], for which, where the note is “Zaire ebolavirus, Vero”, the IC50 came to 8.8 µM and the Emax is 91.2%.
The matching figures for `C[C@@H]1C[C@@H]([C@H](O)CC2CC(=O)NC(=O)C2)C(=O)[C@@H](C)C1` [Cycloheximide]: under 1.6 µM and 90%.
As for `CN1CCC(=C2c3ccccc3C=Cc3ccccc32)CC1` [Cyproheptadine Hydrochloride], the Emax (Zaire ebolavirus, Vero) turned out to be 49.3%.
As to `C#C[C@]1(O)CC[C@H]2[C@@H]3CCC4=Cc5oncc5C[C@]4(C)[C@H]3CC[C@@]21C` [Danazol], under “Zaire ebolavirus, Vero”, the IC50 came to 12.9 µM and the Emax was found to be 54.6%.
The matching figures for `COc1cc2c(cc1OC)[C@@H]1C(=O)c3ccc4c(c3O[C@@H]1CO2)C=CC(C)(C)O4` [Deguelin]: 0.5 µM and 41.8%.
In the case of `CC/C(=C(/CC)c1ccc(O)cc1)c1ccc(O)cc1` [Diethylstilbestrol], where the note is “Zaire ebolavirus, Vero”, the Emax worked out at 43.6%.
With `c1ccc2c(c1)[I+]c1ccccc1-2` [Diphenyleneiodonium chloride], for the setting “Zaire ebolavirus, Vero”, the IC50 was under 1.6 µM and the Emax amounted to 80%.
For `CCCCCCCCCCCC[N+](C)(C)CCOc1ccccc1` [Domiphen Bromide], for the setting “Zaire ebolavirus, Vero”, half-maximal inhibition (IC50) required 7.5 µM and the Emax was found to be 71.5%.
The matching figures for `CN(C)CCOC(C)(c1ccccc1)c1ccccn1` (centres unmarked) [Doxylamine Succinate]: 5.2 µM and 73.1%.
Turning to `CCOc1ccc(/C=C2\NCCc3cc(OCC)c(OCC)cc32)cc1OCC` [Drotaverine Hydrochloride], the Emax (Zaire ebolavirus, Vero) was determined as 36.7%.
As for `O=C([O-])CN(CCN(CC(=O)[O-])CC(=O)[O-])CC(=O)[O-].[Ca+2].[Na+].[Na+]` [Edetate Calcium Disodium], where the note is “Zaire ebolavirus, Vero”, it took 6.6 µM to reach half-maximal inhibition (IC50) and the Emax was found to be 84.1%.
Consider `CC[C@H]1CN2CCc3cc(OC)c(OC)cc3[C@@H]2C[C@@H]1C[C@H]1NCCc2cc(OC)c(OC)cc21` [Emetine dihydrochloride hydrate], for which, under “Zaire ebolavirus, Vero”, the 50% inhibitory concentration (IC50) came out at 0.3 µM and the Emax was 89.3%.
Consider `CC[C@H](C)[C@H](NC(=O)[C@H]([C@@H](C)CC)N(C)C(C)=O)C(=O)N[C@H](C(=O)N[C@@H](CC(C)C)C(=O)[C@@]1(C)CO1)[C@@H](C)O` [Epoxomicin], for which the “Max Effect” value came out at 0.466.
Regarding `C[C@]12CC[C@H]3C(=CCc4cc(O)ccc43)[C@@H]1CCC2=O` [Equilin], the Emax (Zaire ebolavirus, Vero) stood at 42.4%.
For the molecule `COc1ccc(-c2nc(C(=O)N3CCN(C)CC3)sc2-c2ccc(OC)cc2)cc1` [FR122047], the “Max Effect” value was found to be 0.688. In addition, the half-maximal inhibitory concentration (IC50) (read-out: IC50) amounted to 3.7 µM.
As to `COC(=O)Nc1nc2ccc(Sc3ccccc3)cc2[nH]1` [Fenbendazole], for the setting “Zaire ebolavirus, Vero”, 5.8 µM corresponded to half-maximal inhibition (IC50) and the Emax stood at 50%.
Take `CC(C(=O)[O-])c1cccc(Oc2ccccc2)c1.CC(C(=O)[O-])c1cccc(Oc2ccccc2)c1.[Ca+2]` (centres unmarked) [Fenoprofen Calcium]: the “Max Effect” value amounted to 0.454.
Take `CC1=C(/C=C/C(C)=C/C=C/C(C)=C/C(=O)Nc2ccc(O)cc2)C(C)(C)CCC1` [Fenretinide]: the Emax (Zaire ebolavirus, Vero) is 42.6%.
Consider `Nc1[nH]c(=O)ncc1F` [Flucytosine], for which, for the setting “Zaire ebolavirus, Vero”, the IC50 amounted to 4.4 µM and the Emax came out at 79.3%.
Consider `Fc1ccc(C(c2ccc(F)cc2)N2CCN(C/C=C/c3ccccc3)CC2)cc1` [Flunarizine Hydrochloride], for which the Emax (Zaire ebolavirus, Vero) was found to be 40.2%.
Regarding `Clc1cc(Cl)c(OCC#CI)cc1Cl` [Haloprogin], where the note is “Zaire ebolavirus, Vero”, half-maximal inhibition (IC50) required 2.9 µM and the Emax was found to be 58.8%.
The matching figures for `Oc1c(Cl)cc(Cl)c(Cl)c1Cc1c(O)c(Cl)cc(Cl)c1Cl` [Hexachlorophene]: 3.2 µM and 71.3%.
